These results are taken from patent US20260250289A1, “BICYCLIC HETEROCYCLES AND THEIR USE AS WRN INHIBITORS” (Novartis AG, priority 2022, published 2026).

One assay deals with SW48 cells. In words: Proliferation assay SW48 (CellTiterGlo). Type of assay: cell-based. As to conditions: Homo sapiens, SW48, 96 h, SW48 colon carcinoma cells, 96 hours, CellTiterGlo; geometric mean of at least 2; read-out: Proliferation Assay SW48 GI50. Summed up:
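Read-out is CellTiterGlo luminescence after 96 hours of compound exposure, with % growth calculated against day-0 and vehicle-treated ATP levels. SW48 seeded at 2,000 cells/well, dosed next day with eight 3-fold serial dilutions, 0.1% DMSO. GI50 reported as geometric mean, at least 2 replicates.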
(ATP-based viability assays read luminescence as a measure of living cells.)

The next assay relates to DLD1-WRN-KO cells. The experiment in a line: Proliferation assay DLD1-WRN-KO (CellTiterGlo, off-target effects). Type of assay: cell-based. As to conditions: 96 hours, geometric mean of at least 2. Summed up: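 DLD1 cells with CRISPR knockout of WRN were exposed overnight-seeded to eight 3-fold compound dilutions (0.1% DMSO) for 96 h at 37 °C. Viability was read as ATP by CellTiterGlo luminescence against a day-0 plate, giving GI50 and residual viability at top concentration.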

For assay [1], the target named is T1, WRN helicase (aa N517-P1238) (Homo sapiens, UniProt Q14191).
T1 construct: The core helicase motif of the WRN protein (aa N517-P1238) was produced for this assay; His (N); ZZ (N); 3C protease cleavage site (N); made in house; host or cells: Sf21 insect cells (baculovirus; virus and BIICs made in SF9)
In words: WRN ATPase assay (DNA dependent ATP hydrolysis, ADP-Glo). Type of assay: biochemical. As to conditions: 3 hours pre-incubation, 300 micromolar ATP, FLAP26 DNA; geometric mean of at least 2. In outline: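 DNA-dependent ATP hydrolysis detected as ADP by ADP-Glo luminescence, using 300 μM ATP, 0.2 nM FLAP26 substrate and 10 nM WRN aa N517-P1238 (Tris pH 7.5 buffer, 2 mM MgCl2, 50 mM NaCl). IC50s fitted from normalized duplicate half-log dilutions; reported as geometric means of at least 2 replicates.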

T1 sequence (Q14191 517-1238): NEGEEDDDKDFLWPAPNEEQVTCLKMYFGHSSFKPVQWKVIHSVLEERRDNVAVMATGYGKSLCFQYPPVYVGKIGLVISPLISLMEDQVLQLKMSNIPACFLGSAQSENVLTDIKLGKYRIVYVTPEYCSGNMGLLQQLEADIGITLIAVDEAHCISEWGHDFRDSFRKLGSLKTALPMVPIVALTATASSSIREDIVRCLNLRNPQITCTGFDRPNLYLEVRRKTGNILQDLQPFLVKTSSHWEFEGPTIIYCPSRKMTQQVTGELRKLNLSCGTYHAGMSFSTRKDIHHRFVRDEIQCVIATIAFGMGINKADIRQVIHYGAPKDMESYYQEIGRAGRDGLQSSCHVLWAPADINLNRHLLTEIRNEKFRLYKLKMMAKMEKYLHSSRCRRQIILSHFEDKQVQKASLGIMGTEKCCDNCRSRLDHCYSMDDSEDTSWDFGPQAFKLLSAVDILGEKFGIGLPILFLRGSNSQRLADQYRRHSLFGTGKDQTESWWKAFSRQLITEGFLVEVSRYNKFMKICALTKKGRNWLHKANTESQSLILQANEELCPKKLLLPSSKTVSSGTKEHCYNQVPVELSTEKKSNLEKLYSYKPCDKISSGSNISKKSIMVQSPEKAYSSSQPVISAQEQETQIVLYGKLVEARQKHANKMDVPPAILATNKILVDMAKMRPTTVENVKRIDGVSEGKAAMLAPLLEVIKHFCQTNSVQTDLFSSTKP

For `CC(=O)N(C)Cc1ccc(-c2nc3n(CC(=O)Nc4ccc(C(F)(F)F)cc4)c(C)c(N4CCN(C(C)=O)CC4)c(=O)n3n2)cc1` [Example 70, 2-(6-(4-acetylpiperazin-1-yl)-5-methyl-2-(4-((N-methylacetamido)methyl)phenyl)-7-oxo-[1,2,4]triazolo[1,5-a]pyrimidin-4(7H)-yl)-N-(4-(trifluoromethyl)phenyl)acetamide], the GI50 is 0.9 µM with SW48 cells and > 10 µM in the assay with DLD1-WRN-KO cells. Moreover, in assay [1], it took 0.07 µM to reach half-maximal inhibition (IC50).
In the same order, the values of `COC1CCN(c2nc3n(CC(=O)Nc4ccc(C(F)(F)F)cc4)c(C)c(N4CCN(C(C)=O)CC4)c(=O)n3n2)CC1` [Example 123, 2-(6-(4-acetylpiperazin-1-yl)-2-(4-methoxypiperidin-1-yl)-5-methyl-7-oxo-[1,2,4]triazolo[1,5-a]pyrimidin-4(7H)-yl)-N-(4-(trifluoromethyl)phenyl)acetamide] are 9 µM, > 10 µM and 0.7 µM.
Consider `Cc1c(N2CCN(C(=O)c3cc(C#N)n[nH]3)CC2)c(=O)n2nc(C3=CCOCC3)nc2n1CC(=O)Nc1ccc(C(F)(F)F)cc1` [Example 164, 2-(6-(4-(3-cyano-1H-pyrazole-5-carbonyl)piperazin-1-yl)-2-(3,6-dihydro-2H-pyran-4-yl)-5-methyl-7-oxo-[1,2,4]triazolo[1,5-a]pyrimidin-4(7H)-yl)-N-(4-(trifluoromethyl)phenyl)acetamide], for which the GI50 in the assay with SW48 cells and with DLD1-WRN-KO cells was > 10 µM in each case. Besides, the midpoint of inhibition in assay [1], the IC50, lay at 0.05 µM.
As to `CC(=O)N1CCN(c2c(C)n(CC(=O)Nc3ccc(C(F)(F)F)cc3)c3nc(C4=COCCO4)nn3c2=O)CC1` [Example 104, 2-(6-(4-acetylpiperazin-1-yl)-2-(5,6-dihydro-1,4-dioxin-2-yl)-5-methyl-7-oxo-[1,2,4]triazolo[1,5-a]pyrimidin-4(7H)-yl)-N-(4-(trifluoromethyl)phenyl)acetamide], the GI50 is 8 µM in the assay with SW48 cells and > 10 µM with DLD1-WRN-KO cells. For the same molecule, in assay [1], the half-maximal inhibitory concentration (IC50) (commonly the concentration that gives 50% inhibition) was determined as 0.8 µM.
In the same order, the values of `CC(=O)N1CCN(c2c(C)n(CC(=O)Nc3ccc(C(F)(F)F)cc3)c3nc(-c4ccc(CN(C)C(=O)OC(C)(C)C)cc4)nn3c2=O)CC1` [Example 95, tert-butyl (4-(6-(4-acetylpiperazin-1-yl)-5-methyl-7-oxo-4-(2-oxo-2-((4-(trifluoromethyl)phenyl)amino)ethyl)-4,7-dihydro-[1,2,4]triazolo[1,5-a]pyrimidin-2-yl)benzyl)(methyl)carbamate] are 2 µM, > 10 µM and 0.8 µM.
The like results for `CCc1c(N2CCN(C(C)=O)CC2)c(=O)n2nc(C3=CCC(OC)CC3)nc2n1CC(=O)Nc1ccc(C(F)(F)F)cc1` (stereo not drawn) [Example 55, 2-(6-(4-acetylpiperazin-1-yl)-5-ethyl-2-(4-methoxycyclohex-1-en-1-yl)-7-oxo-[1,2,4]triazolo[1,5-a]pyrimidin-4(7H)-yl)-N-(4-(trifluoromethyl)phenyl)acetamide] were, in that order, 0.8 µM, > 10 µM and 0.1 µM.
With `Cc1c(N2CCN(C(=O)c3ccc(F)c(F)c3O)CC2)c(=O)n2nc(N3CCOCC3)nc2n1CC(=O)Nc1ccc(C(F)(F)F)cc1` [Example 150, 2-(6-(4-(3,4-difluoro-2-hydroxybenzoyl)piperazin-1-yl)-5-methyl-2-morpholino-7-oxo-[1,2,4]triazolo[1,5-a]pyrimidin-4(7H)-yl)-N-(4-(trifluoromethyl)phenyl)acetamide], the values for the GI50 in the assay with SW48 cells and in the assay with DLD1-WRN-KO cells were 2 µM and > 10 µM, respectively. The same molecule showed a 50% inhibitory concentration (IC50) in assay [1] of 0.09 µM.
In the same order, the values of `CC(=O)N1CCN(c2c(C)n(CC(=O)Nc3ccc(C(F)(F)F)cc3)c3nc(C4=CCC(N5CC(F)(F)C5)CC4)nn3c2=O)CC1` (stereo not drawn) [Example 114, 2-(6-(4-acetylpiperazin-1-yl)-2-(4-(3,3-difluoroazetidin-1-yl)cyclohex-1-en-1-yl)-5-methyl-7-oxo-[1,2,4]triazolo[1,5-a]pyrimidin-4(7H)-yl)-N-(4-(trifluoromethyl)phenyl) acetamide] are 2 µM, > 10 µM and 0.4 µM.
The like results for `COC(=O)N1CC=C(c2nc3n(CC(=O)Nc4ccc(S(F)(F)(F)(F)F)cc4)c(C)c(N4CCN(C(C)=O)CC4)c(=O)n3n2)CC1` [Example 156, methyl 4-(6-(4-acetylpiperazin-1-yl)-5-methyl-7-oxo-4-(2-oxo-2-((4-(pentafluoro-16-sulfaneyl)phenyl)amino)ethyl)-4,7-dihydro-[1,2,4]triazolo[1,5-a]pyrimidin-2-yl)-3,6-dihydropyridine-1(2H)-carboxylate] were, in that order, 3 µM, > 10 µM and 0.2 µM.
As to `COCC1=CCN(c2nc3n(CC(=O)Nc4ccc(C(F)(F)F)cc4)c(C)c(N4CCN(C(C)=O)CC4)c(=O)n3n2)CC1` [Example 120, 2-(6-(4-acetylpiperazin-1-yl)-2-(4-(methoxymethyl)-3,6-dihydropyridin-1(2H)-yl)-5-methyl-7-oxo-[1,2,4]triazolo[1,5-a]pyrimidin-4(7H)-yl)-N-(4-(trifluoromethyl)phenyl)acetamide], the results for the GI50 in the assay with SW48 cells and with DLD1-WRN-KO cells were 6 µM and > 10 µM, respectively. The molecule further returned an IC50 in assay [1] of 0.6 µM.
The like results for `CCc1c(N2CCN(C(=O)c3ncc(F)c4cc[nH]c34)CC2)c(=O)n2nc(C3=CCOCC3)nc2n1CC(=O)Nc1ccc(C(F)(F)F)cc1C` [Example 51, 2-(2-(3,6-dihydro-2H-pyran-4-yl)-5-ethyl-6-(4-(4-fluoro-1H-pyrrolo[2,3-c]pyridine-7-carbonyl)piperazin-1-yl)-7-oxo-[1,2,4]triazolo[1,5-a]pyrimidin-4(7H)-yl)-N-(2-methyl-4-(trifluoromethyl)phenyl)acetamide] were, in that order, 2 µM, 7 µM and 0.6 µM.
In the case of `CCc1c(N2CCN(C(=O)c3ccc(Cl)c(F)c3O)CC2)c(=O)n2nc(C3=CCOCC3)nc2n1CC(=O)Nc1ccc(C(F)(F)F)cc1C` [Example 45, 2-(6-(4-(4-chloro-3-fluoro-2-hydroxybenzoyl)piperazin-1-yl)-2-(3,6-dihydro-2H-pyran-4-yl)-5-ethyl-7-oxo-[1,2,4]triazolo[1,5-a]pyrimidin-4(7H)-yl)-N-(2-methyl-4-(trifluoromethyl)phenyl)acetamide], the GI50 in the assay on SW48 cells is 0.3 µM; in the assay with DLD1-WRN-KO cells, > 10 µM. The same molecule yielded an IC50 in assay [1] of 0.09 µM.
On to `Cc1nnc(C(=O)N2CCN(c3c(C)n(CC(=O)Nc4ccc(C(F)(F)F)cc4)c4nc(C5=CCOCC5)nn4c3=O)CC2)[nH]1` [Example 159, 2-(2-(3,6-dihydro-2H-pyran-4-yl)-5-methyl-6-(4-(5-methyl-4H-1,2,4-triazole-3-carbonyl)piperazin-1-yl)-7-oxo-[1,2,4]triazolo[1,5-a]pyrimidin-4(7H)-yl)-N-(4-(trifluoromethyl)phenyl)acetamide], for which the GI50 with SW48 cells and in the assay on DLD1-WRN-KO cells was > 10 µM throughout. In assay [1], this molecule gave an IC50 of 0.6 µM.
As for `CCc1c(N2CCN(C(C)=O)CC2)c(=O)n2nc(C3=CCOCC3)nc2n1CC(=O)Nc1ccc(C(F)(F)F)cc1` [Example 54, 2-(6-(4-acetylpiperazin-1-yl)-2-(3,6-dihydro-2H-pyran-4-yl)-5-ethyl-7-oxo-[1,2,4]triazolo[1,5-a]pyrimidin-4(7H)-yl)-N-(4-(trifluoromethyl)phenyl)acetamide], the results for the GI50 in the assay on SW48 cells and in the assay on DLD1-WRN-KO cells were 1 µM and > 10 µM, respectively. The same molecule yielded an IC50 in assay [1] of 0.1 µM.
In the same order, the values of `CC(=O)N1CCN(c2c(C)n(CC(=O)Nc3cc(Cl)c(C(F)(F)F)nc3C)c3nc(C4=CCOCC4)nn3c2=O)CC1` [Example 87, 2-(6-(4-acetylpiperazin-1-yl)-2-(3,6-dihydro-2H-pyran-4-yl)-5-methyl-7-oxo-[1,2,4]triazolo[1,5-a]pyrimidin-4(7H)-yl)-N-(5-chloro-2-methyl-6-(trifluoromethyl)pyridin-3-yl)acetamide] are 4 µM, > 10 µM and 0.5 µM.
In the same order, the values of `CC(=O)N1CCN(c2c(C)n(CC(=O)Nc3ccc(S(F)(F)(F)(F)F)cc3)c3nc(C4=CCCCO4)nn3c2=O)CC1` [Example 127, 2-(6-(4-acetylpiperazin-1-yl)-2-(3,4-dihydro-2H-pyran-6-yl)-5-methyl-7-oxo-[1,2,4]triazolo[1,5-a]pyrimidin-4(7H)-yl)-N-(4-(pentafluoro-16-sulfaneyl)phenyl)acetamide] are > 10 µM, 7 µM and 0.02 µM.
Regarding `CC(=O)N1C2CCC1CN(c1c(C)n(CC(=O)Nc3ccc(C(F)(F)F)cc3)c3nc(C4=CCOCC4)nn3c1=O)C2` [Example 161, 2-(6-(8-acetyl-3,8-diazabicyclo[3.2.1]octan-3-yl)-2-(3,6-dihydro-2H-pyran-4-yl)-5-methyl-7-oxo-[1,2,4]triazolo[1,5-a]pyrimidin-4(7H)-yl)-N-(4-(trifluoromethyl)phenyl)acetamide], the GI50 is 5 µM in the assay with SW48 cells and > 10 µM in the assay with DLD1-WRN-KO cells. Further, in assay [1], the 50% inhibitory concentration (IC50) was found to be 0.7 µM.
